Source: ChEMBL document CHEMBL4699529, “Anti-Inflammatory ent-Kaurane Diterpenoids from Isodon serra” (J Nat Prod, 2020)

Assays:
BV-2 = assay: Cytotoxicity against mouse BV-2 cells; type: cell-based
[1] = Inhibition of LPS-induced NO production in mouse BV-2 cells; type: functional, cell-based

Compound | IC50 [1] | Activity (BV-2)
CSC(=N)N | 3.6 µM | Non-Toxic
C=C1[C@@H]2CC[C@H]3[C@]45CCCC(C)(C)[C@H]4[C@H](OC(C)=O)[C@@](O)(OC5)[C@]3(C2)[C@@H]1OC(C)=O | 26.2 µM | Non-Toxic
C=C1[C@@H]2CC[C@H]3[C@]4(C)CCCC(C)(C)[C@H]4[C@H](OC(C)=O)C(=O)[C@]3(C2)[C@@H]1OC(C)=O | 7.3 µM | Non-Toxic
C=C1[C@@H](OC(C)=O)[C@]23[C@H](O)[C@H]1CC[C@H]2[C@@]12CO[C@]3(O)[C@@H](O)[C@@H]1C(C)(C)CC[C@@H]2OC(C)=O | > 100 µM | Non-Toxic
CC(=O)O[C@H]1CCC(C)(C)[C@@H](CO)[C@@]12COC(=O)[C@@]13C[C@@H](CC[C@H]12)[C@@H](C)C3=O | > 100 µM | Non-Toxic
C=C1[C@@H]2CC[C@H]3[C@]45CCCC(C)(C)[C@H]4[C@H](O)[C@@](O)(OC5)[C@]3(C2)[C@@H]1O | > 60 µM | Non-Toxic

More lines, main results first:

IC50 [1] | Compound | Activity (BV-2)
> 100 µM | CC(=O)O[C@@H]1[C@@]2(CO2)[C@@H]2CC[C@H]3[C@]45CCCC(C)(C)[C@H]4[C@H](OC(C)=O)[C@@](O)(OC5)[C@]13C2 | Non-Toxic
15.6 µM | CC(=O)O[C@H]1[C@]2(CO2)[C@@H]2CC[C@H]3[C@]45CCCC(C)(C)[C@H]4[C@H](OC(C)=O)[C@@](O)(OC5)[C@@]31C2 | Non-Toxic
> 100 µM | CC(=O)O[C@@H]1[C@@]2(CO2)[C@@H]2CC[C@H]3[C@]45CCCC(C)(C)[C@H]4[C@H](OC(C)=O)[C@@](O)(OC5)[C@]13[C@@H]2O | Non-Toxic
40.1 µM | CC(=O)O[C@@H]1[C@@](O)(CO)[C@@H]2CC[C@H]3[C@]45CCCC(C)(C)[C@H]4[C@H](OC(C)=O)[C@@](O)(OC5)[C@]13C2 | Non-Toxic
44.1 µM | CC(=O)O[C@H]1[C@](O)(CO)[C@@H]2CC[C@H]3[C@]45CCCC(C)(C)[C@H]4[C@H](OC(C)=O)[C@@](O)(OC5)[C@]13C2 | Non-Toxic
